In the first test the test system is P. aeruginosa, PAM1723, overexpressing the MexAB-OprM efflux pump. Type of test: cell-based, Pseudomonas aeruginosa. As to conditions: lowest EPI concentration giving antibacterial activity with levofloxacin at 1/8 of its MIC, MHB, 20 h at 35° C. The gist of the method:
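Checkerboard microdilution in Mueller Hinton Broth, with EPI concentrations varied along one axis. The inoculum was 5 times 10^5 CFU/ml from early-log culture. Plates were incubated 20 h at 35° C, and growth was read at 650 nm and by visual inspection.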
Take `NCCN(CCN)C(=O)CC[C@H](N)C(=O)N[C@H](Cc1ccc(C(F)(F)F)cc1)C(=O)Nc1cccc(B(O)O)c1` [Compound 2]: the “MPC8 (Minimum Potentiating Concentration)” value (shortened to “MPC8”) is “B (B = MPC8 of 2.5 μg/ml to less than 10 μg/mL.)”.

Regarding `CC1(C)OB(O)c2cc(NC(=O)[C@@H](Cc3ccc(C(F)(F)F)cc3)NC(=O)[C@@H](N)CCC(=O)N3C[C@@H](N)C[C@H]3CN)ccc21` [Compound 75, (S)-2-amino-5-((2S,4S)-4-amino-2-(aminomethyl)pyrrolidin-1-yl)-N-((R)-1-(1-hydroxy-3,3-dimethyl-1,3-dihydrobenzo[c][1,2]oxaborol-6-ylamino)-1-oxo-3-(4-(trifluoromethyl)phenyl)propan-2-yl)-5-oxopentanamide], the “MPC8” value is “B (B = MPC8 of 2.5 μg/ml to less than 10 μg/mL.)”.

As to `CC(C)c1ccc(C[C@@H](NC(=O)[C@@H](N)CCC(=O)N(CCN)CCN)C(=O)Nc2ccc3c(c2)B(O)OC3(C)C)cc1` [Compound 78, (S)-2-amino-N5,N5-bis(2-aminoethyl)-N^1-((R)-1-(1-hydroxy-3,3-dimethyl-1,3-dihydrobenzo[c][1,2]oxaborol-6-ylamino)-3-(4-isopropylphenyl)-1-oxopropan-2-yl)pentanediamide], the “MPC8” value is given as “A (A = MPC8 of less than 2.5 μg/mL.)”.

`CC1(C)OB(O)c2ccc(NC(=O)[C@@H](Cc3ccc(C(F)(F)F)cc3)NC(=O)[C@@H](N)CCC(=O)N(CCN)CCN)cc21` [Compound 84, (S)-2-amino-N^5,N^5-bis(2-aminoethyl)-N^1-((R)-1-(1-hydroxy-3,3-dimethyl-1,3-dihydrobenzo[c][1,2]oxaborol-5-ylamino)-1-oxo-3-(4-(trifluoromethyl)phenyl)propan-2-yl)pentanediamide]: the “MPC8” value was “B (B = MPC8 of 2.5 μg/ml to less than 10 μg/mL.)”.

Take `CC1(C)OB(O)c2ccc(CNC(=O)[C@@H](Cc3ccc(C(F)(F)F)cc3)NC(=O)[C@@H](N)CCC(=O)N(CCN)CCN)cc21` [Compound 90, (S)-2-amino-N^5,N^5-bis(2-aminoethyl)-N^1-((R)-1-((1-hydroxy-3,3-dimethyl-1,3-dihydrobenzo[c][1,2]oxaborol-5-yl)methylamino)-1-oxo-3-(4-(trifluoromethyl)phenyl)propan-2-yl)pentanediamide]: the “MPC8” value was “B (B = MPC8 of 2.5 μg/ml to less than 10 μg/mL.)”.

Consider `CC1(C)OB(O)c2ccc(CNC(=O)[C@@H](CCc3ccc(C(F)(F)F)cc3)NC(=O)[C@@H](N)CCC(=O)N(CCN)CCN)cc21` [Compound 93, (S)-2-amino-N^5,N^5-bis(2-aminoethyl)-N^1-((R)-1-((1-hydroxy-3,3-dimethyl-1,3-dihydrobenzo[c][1,2]oxaborol-5-yl)methylamino)-1-oxo-4-(4-(trifluoromethyl)phenyl)butan-2-yl)pentanediamide], for which the “MPC8” value is on record as “B (B = MPC8 of 2.5 μg/ml to less than 10 μg/mL.)”.

As to `CC1(C)OB(O)c2ccc(NC(=O)[C@@H](CCc3ccc(C(F)(F)F)cc3)NC(=O)[C@@H](N)CCC(=O)N(CCN)CCN)cc21` [Compound 94, (S)-2-amino-N^5,N^5-bis(2-aminoethyl)-N^1-((R)-1-(1-hydroxy-3,3-dimethyl-1,3-dihydrobenzo[c][1,2]oxaborol-5-ylamino)-1-oxo-4-(4-(trifluoromethyl)phenyl)butan-2-yl)pentanediamide], the “MPC8” value was “A (A = MPC8 of less than 2.5 μg/mL.)”.

In the case of `CC1(C)OB(O)c2ccc(NC(=O)[C@@H](Cc3ccc(C(F)(F)F)cc3)NC(=O)[C@@H](N)CCC(=O)NC(CN)CN)cc21` [Compound 95, (S)-2-amino-N^5-(1,3-diaminopropan-2-yl)-N^1-((R)-1-(1-hydroxy-3,3-dimethyl-1,3-dihydrobenzo[c][1,2]oxaborol-5-ylamino)-1-oxo-3-(4-(trifluoromethyl)phenyl)propan-2-yl)pentanediamide], the “MPC8” value was “B (B = MPC8 of 2.5 μg/ml to less than 10 μg/mL.)”.

With `CC1(C)OB(O)c2ccc(NC(=O)[C@@H](CCc3ccc(C(F)(F)F)cc3)NC(=O)[C@@H](N)CCC(=O)NC(CN)CN)cc21` [Compound 96, (S)-2-amino-N^5-(1,3-diaminopropan-2-yl)-N^1-((R)-1-(1-hydroxy-3,3-dimethyl-1,3-dihydrobenzo[c][1,2]oxaborol-5-ylamino)-1-oxo-4-(4-(trifluoromethyl)phenyl)butan-2-yl)pentanediamide], the “MPC8” value is listed as “A (A = MPC8 of less than 2.5 μg/mL.)”.

`CC1(C)OB(O)c2ccc(NC(=O)[C@@H](COc3ccc(C(F)(F)F)cc3)NC(=O)[C@@H](N)CCC(=O)NC(CN)CN)cc21` [Compound 97, (S)-2-amino-N^5-(1,3-diaminopropan-2-yl)-N^1-((R)-1-(1-hydroxy-3,3-dimethyl-1,3-dihydrobenzo[c][1,2]oxaborol-5-ylamino)-1-oxo-3-(4-(trifluoromethyl)phenoxy)propan-2-yl)pentanediamide]: the “MPC8” value is given as “B (B = MPC8 of 2.5 μg/ml to less than 10 μg/mL.)”.

For `CC1(C)OB(O)c2ccc(NC(=O)[C@@H](CSc3ccc(C(F)(F)F)cc3)NC(=O)[C@@H](N)CCC(=O)NC(CN)CN)cc21` [Compound 98, (S)-2-amino-N^5-(1,3-diaminopropan-2-yl)-N^1-((S)-1-(1-hydroxy-3,3-dimethyl-1,3-dihydrobenzo[c][1,2]oxaborol-5-ylamino)-1-oxo-3-(4-(trifluoromethyl)phenylthio)propan-2-yl)pentanediamide], the “MPC8” value is reported as “B (B = MPC8 of 2.5 μg/ml to less than 10 μg/mL.)”.

`CC1(C)OB(O)c2c(NC(=O)[C@@H](Cc3ccc(C(F)(F)F)cc3)NC(=O)[C@@H](N)CCC(=O)N(CCN)CCN)cccc21` [Compound 101, (S)-2-amino-N^5,N^5-bis(2-aminoethyl)-N^1-((R)-1-(1-hydroxy-3,3-dimethyl-1,3-dihydrobenzo[c][1,2]oxaborol-7-ylamino)-1-oxo-3-(4-(trifluoromethyl)phenyl)propan-2-yl)pentanediamide]: the “MPC8” value is listed as “B (B = MPC8 of 2.5 μg/ml to less than 10 μg/mL.)”.

On to `CC1(C)OB(O)c2c(NC(=O)[C@@H](CCc3ccc(C(F)(F)F)cc3)NC(=O)[C@@H](N)CCC(=O)N(CCN)CCN)cccc21` [Compound 102, (S)-2-amino-N^5,N^5-bis(2-aminoethyl)-N^1-((R)-1-(1-hydroxy-3,3-dimethyl-1,3-dihydrobenzo[c][1,2]oxaborol-7-ylamino)-1-oxo-4-(4-(trifluoromethyl)phenyl)butan-2-yl)pentanediamide], for which the “MPC8” value is recorded as “B (B = MPC8 of 2.5 μg/ml to less than 10 μg/mL.)”.

Take `CC1(C)OB(O)c2c1ccc(F)c2NC(=O)[C@@H](CCc1ccc(C(F)(F)F)cc1)NC(=O)[C@@H](N)CCC(=O)N(CCN)CCN` [Compound 103, (S)-2-amino-N^5,N^5-bis(2-aminoethyl)-N^1-((R)-1-(6-fluoro-1-hydroxy-3,3-dimethyl-1,3-dihydrobenzo[c][1,2]oxaborol-7-ylamino)-1-oxo-4-(4-(trifluoromethyl)phenyl)butan-2-yl)pentanediamide]: the “MPC8” value was “B (B = MPC8 of 2.5 μg/ml to less than 10 μg/mL.)”.

On to `CC1(C)OB(O)c2cc(NC(=O)[C@@H](Cc3ccc(C(F)(F)F)cc3)NC(=O)[C@@H](N)CCCNC(=O)C(CN)CN)ccc21` [Compound 104, (S)-2-amino-5-(3-amino-2-(aminomethyl)propanamido)-N-((R)-1-(1-hydroxy-3,3-dimethyl-1,3-dihydrobenzo[c][1,2]oxaborol-6-ylamino)-1-oxo-3-(4-(trifluoromethyl)phenyl)propan-2-yl)pentanamide], for which the “MPC8” value is recorded as “B (B = MPC8 of 2.5 μg/ml to less than 10 μg/mL.)”.

`CC1(C)OB(O)c2cc(C(=O)NC[C@@H](CCc3ccc(C(F)(F)F)cc3)NC(=O)[C@@H](N)CCC(=O)N(CCN)CCN)ccc21` [Compound 106, (S)-2-amino-N^5,N^5-bis(2-aminoethyl)-N^1-((R)-1-(1-hydroxy-3,3-dimethyl-1,3-dihydrobenzo[c][1,2]oxaborole-6-carboxamido)-4-(4-(trifluoromethyl)phenyl)butan-2-yl)pentanediamide]: the “MPC8” value is reported as “B (B = MPC8 of 2.5 μg/ml to less than 10 μg/mL.)”.

Consider `CC1(C)OB(O)c2cc(NC[C@@H](CCc3ccc(C(F)(F)F)cc3)NC(=O)[C@@H](N)CCC(=O)N(CCN)CCN)ccc21` [Compound 107, (S)-2-amino-N^5,N^5-bis(2-aminoethyl)-N^1-((R)-1-(1-hydroxy-3,3-dimethyl-1,3-dihydrobenzo[c][1,2]oxaborol-6-ylamino)-4-(4-(trifluoromethyl)phenyl)butan-2-yl)pentanediamide], for which the “MPC8” value is reported as “A (A = MPC8 of less than 2.5 μg/mL.)”.

`CC1(C)OB(O)c2cc(NC[C@@H](Cc3ccc(C(F)(F)F)cc3)NC(=O)[C@@H](N)CCC(=O)N(CCN)CCN)ccc21` [Compound 108, (S)-2-amino-N^5,N^5-bis(2-aminoethyl)-N^1-((R)-1-(1-hydroxy-3,3-dimethyl-1,3-dihydrobenzo[c][1,2]oxaborol-6-ylamino)-3-(4-(trifluoromethyl)phenyl)propan-2-yl)pentanediamide]: the “MPC8” value is reported as “A (A = MPC8 of less than 2.5 μg/mL.)”.

The test system of a further test is P. aeruginosa PAM3062, which overexpresses the MexAB-OprM efflux pump. Type of test: in vivo, Pseudomonas aeruginosa. To be noted: neutropenic rats, lung; levofloxacin 100 (50 BID) mg/kg + EPI 40 (20 BID) mg/kg 24 hr dose; 1.5 hr IV infusion; 24 hours after start of treatment. The procedure:
Rats are made neutropenic by administration of a 75 mg/kg dose of cyclophosphamide 2 days prior to infection. Immediately prior to infection, rats are anesthetized with isoflurane. Lung infection is established by intratracheal instillation of ˜1×10^7 CFU/lung. P. aeruginosa PAM3062, which overexpresses the MexAB-OprM efflux pump, is used for infection. All treatments are initiated 4 hours after infection and are administered by 1.5 hr IV infusion twice daily. Rats are sacrificed 24 hours after the start of treatment; lungs are homogenized, serially diluted, and plated to determine colony counts.
`NCCN(CCN)C(=O)CC[C@H](N)C(=O)N[C@H](Cc1ccc(C(F)(F)F)cc1)C(=O)Nc1cccc(B(O)O)c1` [Compound 2]: the “Δlog CFU” value is recorded as −1.74.

Values taken from patent US8933018B2, “Boron containing polybasic bacterial efflux pump inhibitors and therapeutic uses thereof” (priority 2011, dated 2015).
